Earlier results in patent US20210230662A1, “Methods for the Treatment of Solid Tumor Cancers Using Illudins and Biomarkers” (Lantern Pharma Inc., priority 2018, published 2021).

Experiments:
tumor cells = details: at certain doses
normal cells = details: at certain doses

Structure (SMILES): CC1=C(CO)C2=C(C)C3(CC3)[C@@](C)(O)C(=O)C2=C1 [Irofulven, HydroxyMethylAcylfulvene]
- susceptibility of tumor cells to dual damaging activity (tumor cells): highly susceptible
- response of normal cells to the cell-killing drug (normal cells): marginal response
